Measurements from the NIST ThermoML archive (doi:10.1016/j.fluid.2010.11.020).

Details: Liquid, Vibrating tube method

CCCCO [butan-1-ol]
Details | mass density [kg/m3]
293.15 K, 100 kPa | 809.5
293.15 K, 10000 kPa | 816.4
293.15 K, 20000 kPa | 822.9
293.15 K, 30000 kPa | 828.9
293.15 K, 40000 kPa | 834.5
293.15 K, 50000 kPa | 839.8
293.15 K, 60000 kPa | 844.7
293.15 K, 70000 kPa | 849.6
293.15 K, 80000 kPa | 854.2
293.15 K, 90000 kPa | 858.5
293.15 K, 100000 kPa | 862.9
293.15 K, 110000 kPa | 866.7
293.15 K, 120000 kPa | 870.8
293.15 K, 130000 kPa | 874.4
293.15 K, 140000 kPa | 878.1
303.15 K, 100 kPa | 802
303.15 K, 10000 kPa | 809.4
303.15 K, 20000 kPa | 816
303.15 K, 30000 kPa | 822.3
303.15 K, 40000 kPa | 828
303.15 K, 50000 kPa | 833.6
303.15 K, 60000 kPa | 838.7
303.15 K, 70000 kPa | 843.6
303.15 K, 80000 kPa | 848.3
303.15 K, 90000 kPa | 852.7
303.15 K, 100000 kPa | 857
303.15 K, 110000 kPa | 861.2
303.15 K, 120000 kPa | 865
303.15 K, 130000 kPa | 868.9
303.15 K, 140000 kPa | 872.6
313.15 K, 100 kPa | 794.1
313.15 K, 10000 kPa | 801.6
313.15 K, 20000 kPa | 809.1
313.15 K, 30000 kPa | 815.4
313.15 K, 40000 kPa | 821.4
313.15 K, 50000 kPa | 827.2
313.15 K, 60000 kPa | 832.6
313.15 K, 70000 kPa | 837.8
313.15 K, 80000 kPa | 842.6
313.15 K, 90000 kPa | 847.3
313.15 K, 100000 kPa | 851.6
313.15 K, 110000 kPa | 856
313.15 K, 120000 kPa | 860.1
313.15 K, 130000 kPa | 864
313.15 K, 140000 kPa | 867.9
323.15 K, 100 kPa | 786.5
323.15 K, 10000 kPa | 794.5
323.15 K, 20000 kPa | 801.7
323.15 K, 30000 kPa | 808.5
323.15 K, 40000 kPa | 815
323.15 K, 50000 kPa | 821
323.15 K, 60000 kPa | 826.5
323.15 K, 70000 kPa | 831.5
323.15 K, 80000 kPa | 836.3
323.15 K, 90000 kPa | 841.1
323.15 K, 100000 kPa | 845.8
323.15 K, 110000 kPa | 850.1
323.15 K, 120000 kPa | 854.3
323.15 K, 130000 kPa | 858.3
323.15 K, 140000 kPa | 862.1
333.15 K, 100 kPa | 778.3
333.15 K, 10000 kPa | 786.8
333.15 K, 20000 kPa | 794.6
333.15 K, 30000 kPa | 801.7
333.15 K, 40000 kPa | 808.4
333.15 K, 50000 kPa | 814.6
333.15 K, 60000 kPa | 820.3
333.15 K, 70000 kPa | 825.6
333.15 K, 80000 kPa | 830.8
333.15 K, 90000 kPa | 836
333.15 K, 100000 kPa | 840.5
333.15 K, 110000 kPa | 844.9
333.15 K, 120000 kPa | 849
333.15 K, 130000 kPa | 853.2
333.15 K, 140000 kPa | 857
343.15 K, 100 kPa | 769.9
343.15 K, 10000 kPa | 779
343.15 K, 20000 kPa | 787.1
343.15 K, 30000 kPa | 794.4
343.15 K, 40000 kPa | 801.3
343.15 K, 50000 kPa | 807.8
343.15 K, 60000 kPa | 813.6
343.15 K, 70000 kPa | 819.3
343.15 K, 80000 kPa | 824.6
343.15 K, 90000 kPa | 829.5
343.15 K, 100000 kPa | 834.4
343.15 K, 110000 kPa | 838.9
343.15 K, 120000 kPa | 843.3
343.15 K, 130000 kPa | 847.5
343.15 K, 140000 kPa | 851.6
353.15 K, 100 kPa | 760.9
353.15 K, 10000 kPa | 770.6
353.15 K, 20000 kPa | 779.2
353.15 K, 30000 kPa | 787.1
353.15 K, 40000 kPa | 794.3
353.15 K, 50000 kPa | 800.9
353.15 K, 60000 kPa | 807.7
353.15 K, 70000 kPa | 813.2
353.15 K, 80000 kPa | 818.9
353.15 K, 90000 kPa | 823.9
353.15 K, 100000 kPa | 828.8
353.15 K, 110000 kPa | 833.5
353.15 K, 120000 kPa | 838.1
353.15 K, 130000 kPa | 842.1
353.15 K, 140000 kPa | 846.5
363.15 K, 100 kPa | 751.9
363.15 K, 10000 kPa | 762.6
363.15 K, 20000 kPa | 771.7
363.15 K, 30000 kPa | 780.1
363.15 K, 40000 kPa | 787.4
363.15 K, 50000 kPa | 794.3
363.15 K, 60000 kPa | 800.9
363.15 K, 70000 kPa | 807
363.15 K, 80000 kPa | 812.5
363.15 K, 90000 kPa | 817.9
363.15 K, 100000 kPa | 822.9
363.15 K, 110000 kPa | 827.7
363.15 K, 120000 kPa | 832.4
363.15 K, 130000 kPa | 836.8
363.15 K, 140000 kPa | 841
373.15 K, 100 kPa | 742.4
373.15 K, 10000 kPa | 753.4
373.15 K, 20000 kPa | 763.3
373.15 K, 30000 kPa | 772.2
373.15 K, 40000 kPa | 780
373.15 K, 50000 kPa | 787.2
373.15 K, 60000 kPa | 793.8
373.15 K, 70000 kPa | 800.2
373.15 K, 80000 kPa | 805.8
373.15 K, 90000 kPa | 811.5
373.15 K, 100000 kPa | 817
373.15 K, 110000 kPa | 821.9
373.15 K, 120000 kPa | 826.3
373.15 K, 130000 kPa | 831
373.15 K, 140000 kPa | 835.3
383.15 K, 100 kPa | 732.2
383.15 K, 10000 kPa | 744.7
383.15 K, 20000 kPa | 754.6
383.15 K, 30000 kPa | 764.3
383.15 K, 40000 kPa | 772.2
383.15 K, 50000 kPa | 779.6
383.15 K, 60000 kPa | 786.6
383.15 K, 70000 kPa | 793.2
383.15 K, 80000 kPa | 799.1
383.15 K, 90000 kPa | 804.9
383.15 K, 100000 kPa | 810.3
383.15 K, 110000 kPa | 815.4
383.15 K, 120000 kPa | 820.4
383.15 K, 130000 kPa | 825
383.15 K, 140000 kPa | 829.6
393.15 K, 10000 kPa | 735.3
393.15 K, 20000 kPa | 746.4
393.15 K, 30000 kPa | 755.9
393.15 K, 40000 kPa | 764.9
393.15 K, 50000 kPa | 772.3
393.15 K, 60000 kPa | 779.6
393.15 K, 70000 kPa | 786.3
393.15 K, 80000 kPa | 792.8
393.15 K, 90000 kPa | 798.8
393.15 K, 100000 kPa | 804.3
393.15 K, 110000 kPa | 809.7
393.15 K, 120000 kPa | 814.7
393.15 K, 130000 kPa | 819.3
393.15 K, 140000 kPa | 823.9
403.15 K, 10000 kPa | 725.6
403.15 K, 20000 kPa | 737.3
403.15 K, 30000 kPa | 747.7
403.15 K, 40000 kPa | 756.9
403.15 K, 50000 kPa | 765.4
403.15 K, 60000 kPa | 772.8
403.15 K, 70000 kPa | 779.9
403.15 K, 80000 kPa | 786.5
403.15 K, 90000 kPa | 792.6
403.15 K, 100000 kPa | 798.5
403.15 K, 110000 kPa | 803.9
403.15 K, 120000 kPa | 809.1
403.15 K, 130000 kPa | 814.1
403.15 K, 140000 kPa | 819.3
